A short description of the data set: cn = amount concentration of the nth substance listed, in mol/dm3. The conditions noted are these: 298.15 K, 101.3 kPa, Liquid, Taylor dispersion method.

Regarding `NNC(=O)c1ccncc1` [isonicotinic acid hydrazide] + O, the binary diffusion coefficient runs as follows: (c1 = 0) 8.26e-10 m2/s; (c1 = 0.005) 8.25e-10 m2/s; (c1 = 0.01) 8.23e-10 m2/s; (c1 = 0.02) 8.21e-10 m2/s.
